In US10407429B2, “Pyrazolo[1,5-a]triazin-4-amine derivatives useful in therapy” (Curovir AB, priority 2015, dated 2019):

Tests used:
Assay type in all cases: cell-based
Enterovirus 6 = assay: Antiviral CPE assay in mammalian cell culture; conditions: prevention of viral CPE, read-out: inhibition capacity (IC50) EV6
Enterovirus 30 = assay: Antiviral CPE assay in mammalian cell culture; conditions: Enterovirus, read-out: inhibition capacity (IC50) EV30
Enterovirus 68 = assay: Antiviral CPE assay in mammalian cell culture; conditions: Enterovirus D, EV68, read-out: inhibition capacity (IC50) EV68
Enterovirus 71 = assay: Antiviral CPE assay in mammalian cell culture; conditions: Enterovirus A, EV71, prevention of viral CPE, read-out: inhibition capacity (IC50) EV71
coxsackie B1 virus = assay: Antiviral CPE assay in mammalian cell culture; conditions: read-out: inhibition capacity (IC50) Bl
coxsackie B2 virus = assay: Antiviral CPE assay in mammalian cell culture; conditions: read-out: inhibition capacity (IC50) B2
coxsackie B3 virus = assay: Antiviral CPE assay in mammalian cell culture; conditions: Enterovirus B, B3, read-out: inhibition capacity (IC50) B3
coxsackie B 4 virus = assay: Antiviral CPE assay in mammalian cell culture; conditions: Enterovirus B, B4, read-out: inhibition capacity (IC50) B4
coxsackie B5virus = assay: Antiviral CPE assay in mammalian cell culture; conditions: read-out: inhibition capacity (IC50) B5
polio virus Sabin 1 = assay: organism not typed; conditions: read-out: inhibition capacity (IC50) Polio 1

| Compound | IC50 (Enterovirus 6) [µM] | IC50 (Enterovirus 30) [µM] | IC50 (Enterovirus 68) [µM] | IC50 (Enterovirus 71) [µM] | IC50 (coxsackie B1 virus) [µM] | IC50 (coxsackie B2 virus) [µM] | IC50 (coxsackie B3 virus) [µM] | IC50 (coxsackie B 4 virus) [µM] | IC50 (coxsackie B5virus) [µM] | IC50 (polio virus Sabin 1) [µM] |
| --- | --- | --- | --- | --- | --- | --- | --- | --- | --- | --- |
| COc1ccc(-c2c(C)nn3c(NCc4ccc(O)cc4)nc(C)nc23)cc1OC [Example 17, 4-[[[8-(3,4-dimethoxyphenyl)-2,7-dimethyl-pyrazolo[1,5-a][1,3,5]triazin-4-yl]amino]methyl]phenol] | < 0.1 | < 0.1 | < 0.1 | < 0.01 | < 0.01 | < 0.01 | < 0.1 | < 0.1 | < 0.01 | < 0.01 |
| COc1ccc(-c2c(C)nn3c(NCc4ccc(C(C)C)cc4)nc(C)nc23)cc1OC [Example 4, 8-(3,4-dimethoxyphenyl)-N-[(4-isopropylphenyl)methyl]-2,7-dimethyl-pyrazolo[1,5-a][1,3,5]triazin-4-amine] | < 1 | < 1 | < 1 | < 1 | < 1 | < 1 | < 1 | < 1 | < 1 | < 1 |
| COc1ccc(-c2c(C)nn3c(NCC4CCCO4)nc(C)nc23)cc1OC (stereo not shown) [Example 18, 8-(3,4-dimethoxyphenyl)-2,7-dimethyl-N-(tetrahydrofuran-2-ylmethyl)pyrazolo[1,5-a][1,3,5]triazin-4-amine] | < 1 | < 1 | < 1 | < 1 | < 1 | < 1 | < 1 | < 1 | < 1 | < 1 |
| COc1ccc(-c2c(C)nn3c(NCc4cccs4)nc(C)nc23)cc1OC [Example 21, 8-(3,4-dimethoxyphenyl)-2,7-dimethyl-N-(2-thienylmethyl)pyrazolo[1,5-a][1,3,5]triazin-4-amine] | < 0.1 | < 0.1 | < 0.1 | < 0.1 | < 0.01 | < 0.01 | < 0.1 | < 0.1 | < 0.1 | < 0.1 |
| COc1ccc(-c2c(C)nn3c(NCc4ccc(NC(C)=O)cc4)nc(C)nc23)cc1OC [Example 9, N-[4-[[[8-(3,4-dimethoxyphenyl)-2,7-dimethyl-pyrazolo[1,5-a][1,3,5]triazin-4-yl]amino]methyl]phenyl]acetamide] | < 0.1 | < 0.1 | < 0.1 | < 0.1 | < 1 | < 0.1 | < 0.1 | < 0.1 | < 0.1 | < 0.01 |
| CCC(=O)NS(=O)(=O)c1ccc(CNc2nc(C)nc3c(-c4ccc(OC)c(OC)c4)c(C)nn23)cc1 [Example 25, N-[4-[[[8-(3,4-dimethoxyphenyl)-2,7-dimethyl-pyrazolo[1,5-a][1,3,5]triazin-4-yl]amino]methyl]phenyl]sulfonylpropanamide] | > 1 | > 1 | < 1 | > 1 | > 1 | > 1 | > 1 | > 1 | > 1 | > 1 |
| COc1ccc(-c2c(C)nn3c(NCc4ccccc4)nc(C)nc23)cc1OC [Example 20, N-benzyl-8-(3,4-dimethoxyphenyl)-2,7-dimethyl-pyrazolo[1,5-a][1,3,5]triazin-4-amine] | < 0.1 | < 0.1 | < 0.1 | < 0.1 | < 0.1 | < 0.1 | < 0.1 | < 0.01 | < 0.1 | < 0.1 |
| COc1ccc(CNc2nc(C)nc3c(-c4ccc(OC)c(OC)c4)c(C)nn23)cn1 [Example 13, 8-(3,4-dimethoxyphenyl)-N-[(6-methoxy-3-pyridyl)methyl]-2,7-dimethyl-pyrazolo[1,5-a][1,3,5]triazin-4-amine] |  | < 0.01 | < 0.1 | < 0.1 | < 0.01 | < 0.1 | < 0.1 | < 0.1 | < 0.1 | < 0.01 |
